These are literature values, as cited in patent US10894072B2, “Compositions and methods for treating fibromyalgia” (Quality IP Holdings, LLC, priority 2017, dated 2021).

One data set has as its system hGH. The conditions noted are these: for Increase in hGH: other amino acids.
The next data set has as its system IGF-1 and IGF-BP3. The conditions noted are these: patients with fibromyalgia, 4 days treatment.
Data set [1] deals with fibromyalgia.
The conditions of data set [2]: subcutaneous injection of 0.06 IU, hGH deficient subjects.
For data set [3], the system named is fibromyalgia. This is another data set of the same source.
Data set [4] relates to fibromyalgia. This is another data set of the same source.
The conditions of data set [5]: hGH-deficient adults, within months of treatment.

With `N=C(N)NCCC[C@H](N)C(=O)O` [arginine], in the data set on hGH (30 g, males), the “Elevation of serum hGH levels” value was 8.6 fold. Further, the “Increase of hGH levels” value in the data set with hGH (intravenous infusion of 183 mg/kg body weight, females) is greater than 20 fold.
In the case of `N[C@@H](Cc1c[nH]cn1)C(=O)O` [histidine], in the data set on hGH, the “Increase in hGH” value is “marked increases”.
As to `NCCCC[C@H](N)C(=O)O` [lysine], the “Increase in hGH” value in the data set with hGH is reported as “marked increases”.
For `CSCC[C@H](N)C(=O)O` [methionine], the “Increase in hGH” value in the data set with hGH is recorded as “marked increases”.
For the molecule `NCCC[C@H](N)C(=O)O` [ornithine], the “Increase in hGH” value in the data set on hGH was “marked increases”.
On to `N[C@@H](Cc1ccccc1)C(=O)O` [phenylalanine], for which the “Increase in hGH” value in the data set on hGH was “marked increases”.
For “hGH: human growth hormone, given by injection in cited studies”, the “Plasma IGF-1 and IGF-BP3 levels” value with IGF-1 and IGF-BP3 is listed as “increase”. Also, the Pain result in the data set on fibromyalgia [1] (hGH added to standard treatment, sustained action over time) is recorded as “effective in reducing pain”. For the same molecule, the “FIQ scores compared with placebo group” value in the data set on fibromyalgia [1] (low-dose hGH added to standard treatment) was “significantly improved”. Besides, in data set [2], the “Mean levels of hGH reached” value is 0.4 ng/mL. The “Reduction in the mean number of tender points (pairs) compared to the control group” value with fibromyalgia [3] (end of one-year study, subcutaneous hGH added to standard therapy) was 60%. In addition, the Tolerability entry in the data set with fibromyalgia [3] (human, in vivo) is recorded as “well tolerated”. The “FIQ score and tender point score over the placebo group” value in the data set on fibromyalgia [4] (at nine months) is “significant improvement”. Besides, the IGF-1 levels result in the data set with fibromyalgia [4] (daily hGH injections) was “prompt and sustained increase”. In addition, the “Lean body mass, skin thickness and muscle mass” value in data set [5] is reported as “gains”.
